The source of these data is US20080009538A1, “Methods and compositions for the treatment of urinary incontinence” (priority 2005, published 2008).

Counter-ions that a name gives are not always drawn. Like-named read-outs stand apart in the source and are kept apart here.

A word on the Ki: it is the equilibrium dissociation constant of an inhibitor or competing ligand from its target. The term inhibition denotes the relative decrease from the control value, in per cent. A word on the IC50: it is the concentration that gives 50% inhibition.

One series addresses α2 adrenergic receptor. The series can be described thus: α2 adrenergic receptor [3H]RX 821002 binding, rat cerebral cortex preparation.
Series [1] relates to Female rats. The experiment in a line: Dilute acetic acid model in rats (filling cystometry). It counts as in vivo, rat. The conditions noted are these: intraduodenal, 0.25% acetic acid continuous irritation. The source says: Additional animal models for evaluating efficacy of bicifadine as an anti-incontinence drug include a widely accepted rat model predictive of anti-incontinence drug activity in humans. Female rats (250-275 g BW, n=8) are anesthetized with urethane (1.2 g/kg) and a saline-filled catheter is inserted into the proximal duodenum for intraduodenal drug administration. A flared-tipped catheter is inserted into the bladder dome, via a midline lower abdominal incision, for bladder filling and pressure recording, and secured by ligation. Electromyography elctrodes are inserted into the external urethral sphincter percutaneously.
In the control, saline is continuously infused at a rate of about 0.055 ml/min via the bladder filling catheter for about 60 minutes to obtain a baseline of lower urinary tract activity. […] Bladder capacity (ml) is calculated as the flow rate of the bladder filling solution […] multiplied by the elapsed time between commencement of bladder filling and occurrence of bladder contraction (min).
Following the control period, a 0.25% acetic acid solution in saline is infused into the bladder to induce bladder irritation. […] Following injection of the third vehicle control, bladder capacity is again measured using acetic acid to fill the bladder. […]

Another series concerns Adult female guinea pigs. The experiment in a line: Urethral function in guinea pigs (external urethral sphincter EMG). The format is in vivo, guinea pig. To be noted: intravenous, normal bladder filling, versus no drug or vehicle. From the text:
Yet another animal model for evaluating efficacy of bicifadine as an anti-incontinence drug is a widely accepted guinea pig model, also predictive of anti-incontinence drug activity in humans. Adult female guinea pigs, weighing 620-707 g, are initially anesthetized with halothane and maintained with urethane. A cannula is inserted into the trachea, a jugular vein and a carotid artery for respiratory ventilation, injection of the test compound and monitoring of the blood pressure, respectively. A midline laporatomy is performed to expose the urinary bladder and a cystometry tube is inserted through a small incision in the dome of the bladder. The abdominal wound is closed tightly around the externalized cystometry tube, which is connected to an infusion pump and pressure transducer, for filling the bladder and recording intravesical pressure. Electromyographic electrodes are inserted into the striated muscles of the external urethral sphincter.
The bladder is filled at a rate of 150 μl/min^−1 with saline until initiation of a micturition reflex. […]
The bladder is then filed to 75% of the threshold volume with saline and weights are positioned on the ventral surface of the abdomen of the animal just rostral to the position of the bladder. […] Electromyographic activity and intravesical pressure are recorded while weights are applied to the abdomen. […]

The target of the next series is T1, 5-HT2A receptor (Homo sapiens, UniProt P28223).
T1 construct: expressed in transfected cells; host or cells: CHO cells
The series can be described thus: 5-HT2A receptor [3H]LSD binding screen, recombinant receptors in CHO cells. To be noted: [3H]LSD 1.2 nM, recombinant human 5-HT2A in CHO cells, 37° C., 30 min, read-out: inhibition of radioligand binding.

Series [2] is described as follows: Blood pressure in human subjects. The format is in vivo.
The test system of the next series is Adult cats. The experiment in a line: Dilute acetic acid bladder model in anesthetized cats (cystometrogram). The format is in vivo, cat. To be noted: i.v., during 0.5% acetic acid infusion. How it is done: Adult cats (male and female) were anesthetized with α-chloralose (50-75 mg/kg i.v.) A cannula was inserted into the trachea to maintain a clear airway. One catheter was inserted into the carotid artery to measure systemic blood pressure, and another was placed into the radial vein for injecting bicifadine hydrochloride. All doses of bicifadine hydrochloride were based on body weight.
Electromyography electrodes were placed in the periurethral striated muscle. A catheter was inserted through the dome of the bladder and was used to infuse either saline for the control or dilute (0.5%) acetic acid into the test cats. The catheter was also used to record bladder pressure during each voiding cystometrogram. After bladder capacity was established using the saline infusion, cysometrograms were taken after an infusion of dilute acetic acid and changes in bladder capacity were recorded. […] Fluid release during micturition was measured by collecting the fluid in a cylinder attached to a force transducer.
On reaching micturition threshold, acetic acid infusion of the bladder was continued, resulting in rhythmic micturition contractions throughout the infusion period. During this time of rhythmic bladder activity, either vehicle as the control or bicifadine hydrochloride was administered. Five minutes after each administration of bicifadine hydrochloride, the bladder was emptied and another cystometrogram was performed. This procedure was repeated with increasing doses of bicifadine hydrochloride.
Under control conditions, rapid increases in intravessicular pressure were recorded after infusion of 5.3±0.6 ml saline into an initially empty bladder. Bladder capacity was reached after infusion of approximately 10.5 ml of saline. When acetic acid was infused, bladder capacity was reduced by more than half. […] Normal time to contraction following instillation of saline into the bladder is approximately 1286 seconds.

Series [3] concerns the target T2, serotonin transporter protein (Homo sapiens, UniProt P31645).
T2 construct: expressed in transfected cells; host or cells: HEK 293 cells
The series can be described thus: [3H]serotonin uptake in HEK 293 cells expressing the transporter. The format is cell-based. The conditions noted are these: recombinant human serotonin transporter, 20 nM [3H]serotonin, read-out: inhibition of [3H]Serotonin uptake (IC50). How it is done:
(§1) The effects bicifadine on [^3H]norepinephrine and [^3H]serotonin uptake were measured in HEK 293 cells expressing the recombinant human forms of the norepinephrine and serotonin transporter proteins, respectively using a modification of the techniques described by Eschleman, et al., (1999). Cells were grown on 150-mm-diameter tissue culture dishes until confluent. Medium was removed from the plates and the cells were washed twice with Ca^2+, Mg^2+-free PBS. Fresh Ca^2+, Mg^2+-free PBS (2.5 ml) was then added to each plate and the plates were placed in a 25° C. water bath for 5 min. The cells were then gently scraped from the plates, and cell clusters were separated by trituration with a pipette for 5 to 10 aspirations and ejections. Aliquots (50 μl) of the suspended cells were then added to assay tubes (in triplicate) containing various concentrations of bicifadine and Krebs-HEPES assay buffer in a final assay volume of 0.5 ml. Following a 10-min pre-incubation in a 25° C. water bath, [^3H]norepinephrine or serotonin (20 nM final concentration) was added, and the assay was incubated for 10 min. The reaction was terminated by filtration through Wallac filtermat A filters presoaked in 0.05% polyethylenimine, using a Tomtec cell harvester. Scintillation fluid was then added to each filtered spot, and radioactivity remaining on the filters was determined by scintillation counting. […]

Series [4] deals with Female rats. The series can be described thus: Neurogenic overactive bladder in spinal cord transected rats. To be noted: versus no drug or vehicle. It counts as in vivo, rat. How it is done: The spinal cord is transected and the intervening space filled with Gelfoam. The overlying muscle layers and skin are sequentially closed with suture, and the animals are treated with antibiotic (100 mg/kg ampicillin s.c.) Residual urine is expressed prior to returning the animals to their cages, and thereafter 3 times daily until terminal experimentation four weeks later. On the day of the experiment, the animals are anesthetized with isofluorane (4%) and a jugular catheter is inserted for access to the systemic circulation and tunneled subcutaneously to exit through the midscapular region. Via a midline abdominal incision, a catheter with a fire-flared tip is inserted into the dome of the bladder through a small cystotomy and secured by ligation for bladder filling and pressure recording. Electrodes are inserted percutaneously into the external urethral sphincter for electromyography readings. […]
Following a 60-90 minute control period of normal saline infusion (0.100-0.150 ml/min) to collect baseline continuous open cystometric data, the pump is turned off, the bladder is emptied, the pump turned back on, and bladder capacity is estimated by a filling cystometrogram. […] Following the third administration of vehicle control, bladder capacity is again measured through a cystometrogram. […] Bladder capacity is measured as described above at 20 minutes following each subsequent drug treatment.

In another series the target is α1 adrenergic receptor. The experiment in a line: α1 adrenergic receptor [3H]prazosin binding, rat cerebral cortex preparation. The conditions noted are these: [3H]prazosin 0.25 nM, 60 min at 22° C., read-out: Inhibition of radioligand binding, affinity (Ki).
Series [5] has as its target T3, norepinephrine transporter protein (Homo sapiens, UniProt P23975).
T3 construct: expressed in transfected cells; host or cells: HEK 293 cells
The experiment in a line: [3H]norepinephrine uptake in HEK 293 cells expressing the transporter. The format is cell-based. To be noted: recombinant human norepinephrine transporter, 20 nM [3H]norepinephrine, read-out: inhibition of [3H]Norepinephrine uptake (IC50). The protocol:
as §1

T2 sequence (P31645 whole entry): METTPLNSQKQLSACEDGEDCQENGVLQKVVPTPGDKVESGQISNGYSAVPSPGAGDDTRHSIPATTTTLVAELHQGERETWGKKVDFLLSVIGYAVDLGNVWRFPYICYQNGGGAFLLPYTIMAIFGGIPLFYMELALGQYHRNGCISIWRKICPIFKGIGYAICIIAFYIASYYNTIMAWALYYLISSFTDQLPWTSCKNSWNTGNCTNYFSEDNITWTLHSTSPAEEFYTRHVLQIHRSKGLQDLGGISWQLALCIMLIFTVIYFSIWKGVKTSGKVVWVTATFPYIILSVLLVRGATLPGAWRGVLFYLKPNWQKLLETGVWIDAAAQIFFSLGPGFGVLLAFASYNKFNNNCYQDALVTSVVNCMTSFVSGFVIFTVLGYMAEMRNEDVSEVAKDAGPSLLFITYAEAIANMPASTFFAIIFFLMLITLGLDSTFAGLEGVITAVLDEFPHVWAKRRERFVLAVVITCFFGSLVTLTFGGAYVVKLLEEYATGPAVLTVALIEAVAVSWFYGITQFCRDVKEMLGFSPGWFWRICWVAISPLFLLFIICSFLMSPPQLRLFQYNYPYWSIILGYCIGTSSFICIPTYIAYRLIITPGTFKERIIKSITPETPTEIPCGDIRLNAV
T3 sequence (P23975 whole entry): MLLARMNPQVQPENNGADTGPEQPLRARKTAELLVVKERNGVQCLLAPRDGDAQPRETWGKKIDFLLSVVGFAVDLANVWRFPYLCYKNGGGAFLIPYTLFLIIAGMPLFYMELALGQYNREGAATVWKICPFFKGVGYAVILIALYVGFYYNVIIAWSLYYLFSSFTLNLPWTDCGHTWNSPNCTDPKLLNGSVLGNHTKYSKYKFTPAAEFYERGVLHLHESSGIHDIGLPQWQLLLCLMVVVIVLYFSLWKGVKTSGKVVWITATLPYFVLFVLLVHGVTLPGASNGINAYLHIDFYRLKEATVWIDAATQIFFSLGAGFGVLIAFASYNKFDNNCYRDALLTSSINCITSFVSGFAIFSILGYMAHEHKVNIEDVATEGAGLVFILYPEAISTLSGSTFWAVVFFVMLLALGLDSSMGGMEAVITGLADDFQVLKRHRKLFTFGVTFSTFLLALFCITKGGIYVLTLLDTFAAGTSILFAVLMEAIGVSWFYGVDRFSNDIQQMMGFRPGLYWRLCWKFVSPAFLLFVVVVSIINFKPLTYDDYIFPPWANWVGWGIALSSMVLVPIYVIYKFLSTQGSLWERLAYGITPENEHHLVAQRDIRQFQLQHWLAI
T1 sequence (P28223 whole entry): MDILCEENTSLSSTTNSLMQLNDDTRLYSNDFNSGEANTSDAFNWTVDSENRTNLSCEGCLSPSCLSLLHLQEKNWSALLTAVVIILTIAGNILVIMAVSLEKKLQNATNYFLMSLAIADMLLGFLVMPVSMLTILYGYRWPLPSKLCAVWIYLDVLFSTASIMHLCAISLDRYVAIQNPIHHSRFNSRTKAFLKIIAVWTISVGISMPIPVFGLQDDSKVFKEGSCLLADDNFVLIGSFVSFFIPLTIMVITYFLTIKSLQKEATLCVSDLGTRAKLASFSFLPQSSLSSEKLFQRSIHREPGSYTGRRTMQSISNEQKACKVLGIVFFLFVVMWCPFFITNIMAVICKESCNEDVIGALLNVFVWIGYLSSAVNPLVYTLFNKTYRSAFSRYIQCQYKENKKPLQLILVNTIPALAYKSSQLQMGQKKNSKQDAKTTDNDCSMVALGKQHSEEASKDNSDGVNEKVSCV
Protocol for α1 adrenergic receptor: At the end of 60 min, the assay was terminated by vacuum filtration and the amount of radioactivity deposited on the filter measured by scintillation counting.
(§2) Ki=inhibitory constant defined as IC50/L+KD; IC50=concentration of bicifadine HCl that inhibits 50% of the maximal response; L=concentration of radioligand added; KD, dissociation constant of the radioligand at equilibrium.
Protocol for α2 adrenergic receptor: This assay was conducted by incubating the rat cortex preparation with a 0.5 nM concentration of [^3H]RX 821002 for 30 min at 22° C. in the presence of either 0.1, 0.3, 1, 3, or 10 μM concentrations bicifadine HCl. Unlabelled (−)epinephrine (100 μM) was used to determine nonspecific binding. The assay was terminated by vacuum filtration, and the amount of radiolabeled receptor retained by the filter measured by scintillation counting. […] Recombinant human 5-HT2A receptors expressed in CHO cells were incubated with bicifadine HCl (0.1, 1 or 10 μM) and [^3H]LSD (1.2 nM) at 37° C. for 30 min (Bonhaus 1995). Serotonin (10 μM) was used to determine nonspecific binding.
as §2

Consider `Cc1ccc([C@]23CNC[C@H]2C3)cc1` (racemic) [Bicifadine HCl, (±)-1-(4-methylphenyl)-3-azabicyclo[3.1.0]hexane hydrochloride], for which the inhibitory constant (Ki) stood at 610 nM at α2 adrenergic receptor (read-out: Inhibition of radioligand binding, affinity (Ki), [3H]RX 821002 0.5 nM, 30 min at 22° C., hydrochloride); 600 nM on α2 adrenergic receptor (read-out: Inhibition of radioligand binding, affinity (Ki), [3H]RX 821002 0.5 nM, 30 min at 22° C., listed as bicifadine, hydrochloride); 1000 nM at α1 adrenergic receptor. The bladder capacity result is “increase in bladder capacity” with Female rats [1], “increased bladder capacity to near control conditions” in the series with Adult cats and “increase in bladder capacity” with Female rats [4]. In the series on Adult female guinea pigs, the “electromyographic activity of external urethral sphincter” value is “increase in electromyographic activity”. For the same compound, the inhibition at 10 µM at 5-HT2A receptor came out at 82%. Also, the “alterations in blood pressure” value in series [2] is on record as “did not cause significant alterations in blood pressure”. In the series with Adult cats, the bladder activity result is listed as “pronounced inhibition of bladder activity”. The “time to contraction (latency to bladder contraction)” value in the series with Adult cats was “increased the time to contraction”. The IC50 in series [3] came out at 117 nM; in series [5] it was 54.7 nM.

`Cc1ccc(C23CNCC2C3)cc1.Cl` (single isomer, unassigned; (+)) [(+)-bicifadine HCl, (+)-1-(p-Tolyl)-3-azabicyclo[3.1.0]hexane hydrochloride]: in the series on Adult cats, the bladder activity entry was “pronounced inhibition of bladder activity”, the bladder capacity result is reported as “increased bladder capacity to near control conditions” and the “time to contraction (latency to bladder contraction)” value is “increased the time to contraction”.
